# Molecular target: T1, Human complement C1s enzyme (Homo sapiens, UniProt P09871)
# T1 construct: purified from human serum, Complement Technology, Inc; purchased Complement Technology, Inc; host or cells: human serum (plasma-derived native protein)
# T1 sequence (P09871 438-688 limits assumed): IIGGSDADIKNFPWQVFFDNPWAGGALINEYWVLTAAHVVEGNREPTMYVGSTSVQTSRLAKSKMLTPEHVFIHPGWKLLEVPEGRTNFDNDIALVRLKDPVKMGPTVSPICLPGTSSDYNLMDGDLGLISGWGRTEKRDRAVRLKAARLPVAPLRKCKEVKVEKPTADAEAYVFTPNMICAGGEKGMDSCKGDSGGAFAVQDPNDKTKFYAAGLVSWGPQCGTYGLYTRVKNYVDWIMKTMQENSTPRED
# T1 sequence (P09871 16-437 partner limits assumed): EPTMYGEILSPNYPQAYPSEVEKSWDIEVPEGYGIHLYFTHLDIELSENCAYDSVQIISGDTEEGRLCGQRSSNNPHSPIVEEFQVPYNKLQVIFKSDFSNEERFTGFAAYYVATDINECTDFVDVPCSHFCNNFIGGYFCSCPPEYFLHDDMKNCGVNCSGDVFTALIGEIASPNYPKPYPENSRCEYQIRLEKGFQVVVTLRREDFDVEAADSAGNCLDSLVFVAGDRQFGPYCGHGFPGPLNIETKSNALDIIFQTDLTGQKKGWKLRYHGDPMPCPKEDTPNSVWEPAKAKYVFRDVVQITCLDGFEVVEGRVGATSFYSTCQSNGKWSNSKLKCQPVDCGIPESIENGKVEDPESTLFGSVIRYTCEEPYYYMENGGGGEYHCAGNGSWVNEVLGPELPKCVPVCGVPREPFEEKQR
# Test: Human C1s enzyme assay
# Format: biochemical
# Settings: human complement C1s enzyme 1.16 nM, substrate Z-L-Lys-SBzl, A405; read-out: IC50 (Stars)
# How it was run: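 Serum-purified human C1s (1.16 nM final) preincubated 5 min at room temperature with compound in 50 mM Tris, 1 M NaCl, pH 7.5. Z-L-Lys-SBzl and DTNB added at 100 μM each; A405 recorded every 30 s. IC50 from nonlinear regression of reaction rates versus compound concentration.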
row,SMILES,IC50
1,"C[C@@H](Nc1cnc(C2CC2)n(CC(=O)NCc2cc3cnccc3[nH]2)c1=O)c1ccc2oc3ccccc3c2c1 [Compound 342, (R)-N-((1H-pyrrolo[3,2-c]pyridin-2-yl)methyl)-2-(2-cyclopropyl-5-((1-(dibenzo [b,d]furan-2-yl)ethyl)amino)-6-oxo-pyrimidin-1(6H)-yl)-acetamide]",100 to 1000 nM
2,"O=C(Cn1c(-c2ccccc2)ncc(NCCCc2ccc3oc4ccccc4c3c2)c1=O)NCc1cc2cnccc2[nH]1 [Compound 40, N-((1H-pyrrolo[3,2-c]pyridin-2-yl)methyl)-2-(5-((3-(dibenzo [b,d]furan-2-yl)propyl)amino)-6-oxo-2-phenylpyrimidin-1(6H)-yl)acetamide]",< 100 nM
3,"C[C@@H](Nc1cnc(-c2cscn2)n(CC(=O)NCc2cc3cnccc3[nH]2)c1=O)c1ccc(-c2ccccc2F)cc1 [Compound 446, (R)-N-((1H-pyrrolo[3,2-c]pyridin-2-yl)methyl)-2-(5-((1-(2′-fluoro-[1,1′-biphenyl]-4-yl)ethyl)amino)-6-oxo-2-(thiazol-4-yl)pyrimidin-1(6H)-yl)acetamide]",< 100 nM
4,"O=C(Cn1c(-c2ccccc2)ncc(-c2nc3ccc(Oc4ccccc4)cc3[nH]2)c1=O)NCc1cc2cnccc2[nH]1 [Compound 81, N-((1H-pyrrolo[3,2-c]pyridin-2-yl)methyl)-2-(6-oxo-5-(6-phenoxy-1H-benzo[d]imidazol-2-yl)-2-phenylpyrimidin-1(6H)-yl)acetamide]",> 1000 nM
5,"O=C(Cn1c(-c2ccccc2)ncc(NCc2cc(-c3ccccc3)no2)c1=O)NCc1cc2cnccc2[nH]1 [Compound 457, N-((1H-pyrrolo[3,2-c]pyridin-2-yl)methyl)-2-(6-oxo-2-phen-yl-5-(((3-phenylisoxazol-5-yl)methyl)amino)pyrimidin-1(6H)-yl)acetamide]",< 100 nM
6,"O=C(Cn1c(-c2ccccc2)ncc(NCc2ccc3c(c2)oc2ccccc23)c1=O)NCc1cc2cnccc2[nH]1 [Compound 26, N-((1H-pyrrolo[3,2-c]pyridin-2-yl)methyl)-2-(5-((dibenzo[b,d]furan-3-ylmethyl)amino)-6-oxo-2-phenylpyrimidin-1(6H)-yl)acetamide]",< 100 nM
7,"C[C@@H](Nc1cnc(-c2cccnc2)n(CC(=O)NCc2cc3cnccc3[nH]2)c1=O)c1ccc2oc3ccccc3c2c1 [Compound 335, (R)-N-((1H-pyrrolo[3,2-c]pyridin-2-yl)methyl)-2-(5-((1-(dibenzo[b,d]furan-2-yl)ethyl)-amino)-6-oxo-2-(pyridin-3-yl)-pyrimidin-1(6H)-yl)acetamide]",< 100 nM
8,"O=C(Cn1c(-c2ccc(N3CCOCC3)cc2)ncc(NCc2ccc3oc4ccccc4c3c2)c1=O)NCc1cc2cnccc2[nH]1 [Compound 216, N-((1H-pyrrolo[3,2-c]pyridin-2-yl)methyl)-2-(5-((dibenzo [b,d]furan-2-ylmethyl)amino)-2-(4-morpholinophenyl)-6-oxo-pyrimidin-1(6H)-yl)acetamide]",< 100 nM
9,"O=C(Cn1c(-c2ccccc2)ncc(Nc2ccc3oc4ccccc4c3c2)c1=O)NCc1cc2cnccc2[nH]1 [Compound 234, N-((1H-pyrrolo[3,2-c]pyridin-2-yl)methyl)-2-(5-(dibenzo [b,d]furan-2-ylamino)-6-oxo-2-phenylpyrimidin-1(6H)-yl)-acetamide]",< 100 nM
10,"C[C@@H](Nc1cnc(N2CC3CC3C2)n(CC(=O)NCc2cc3cnccc3[nH]2)c1=O)c1ccc2oc3ccccc3c2c1 (stereo partly drawn) [Compound 371, N-((1H-pyrrolo[3,2-c]pyridin-2-yl)methyl)-2-(2-(3-azabicyclo [3.1.0]hexan-3-yl)-5-(((R)-1-(dibenzo[b,d]furan-2-yl)ethyl)-amino)-6-oxopyrimidin-1(6H)-yl)acetamide]",> 1000 nM
11,"Cc1ncc(NCc2ccc3oc4ccccc4c3c2)c(=O)n1CC(=O)NCc1cc2cnccc2[nH]1 [Compound 247, N-((1H-pyrrolo[3,2-c]pyridin-2-yl)methyl)-2-(5-((dibenzo [b,d]furan-2-ylmethyl)amino)-2-methyl-6-oxopyrimidin-1(6H)-yl)acetamide]",< 100 nM
12,"O=C(Cn1c(-c2ccccc2)ncc(Br)c1=O)NCc1cc2cnccc2[nH]1 [Compound 71, N-((1H-pyrrolo[3,2-c]pyridin-2-yl)methyl)-2-(5-bromo-6-oxo-2-phenylpyrimidin-1(6H)-yl)acetamide]",100 to 1000 nM
13,"C[C@@H](Nc1cnc(-c2ccccc2)n(CC(=O)NCc2cc3cnccc3[nH]2)c1=O)c1ccc(-c2ccccc2)cc1 [Compound 275, (R)-N-((1H-pyrrolo[3,2-c]pyr-idin-2-yl)methyl)-2-(5-((1-([1,1′-biphenyl]-4-yl)ethyl)-amino)-6-oxo-2-phenylpyrimi-din-1(6H)-yl)acetamide]",< 100 nM
14,"O=C(Cn1c(-c2ccccc2)ncc(NC(=O)c2nnc(-c3ccccc3)o2)c1=O)NCc1cc2cnccc2[nH]1 [Compound 223, N-(1-(2-(((1H-pyrrolo[3,2-c]pyridine-2-yl)methyl)amino)-2-oxoethyl)-6-oxo-2-phenyl-1,6-dihydropyrimidin-5-yl)-5-phenyl-1,3,4-oxadiazole-2-carboxamide]",< 100 nM
15,"CS(=O)(=O)c1ccc(CCCNc2cnc(-c3ccccc3)n(CC(=O)NCc3cc4cnccc4[nH]3)c2=O)cc1 [Compound 42, N-((1H-pyrrolo[3,2-c]pyridin-2-yl)methyl)-2-(5-((3-(4-(methylsulfonyl)phenyl)propyl)amino)-6-oxo-2-phenylpyrimidin-1(6H)-yl)acetamide]",< 100 nM
16,"Cc1cnc(CNc2ncc(N3CCCCC3)n(CC(=O)NCc3cc4cnccc4[nH]3)c2=O)o1 [Compound 474, N-((1H-pyrrolo[3,2-c]pyridin-2-yl)methyl)-2-(3-(((5-methyl-oxazol-2-yl)methyl)amino)-2-oxo-6-(piperidin-1-yl)pyr-azin-1(2H)-yl)acetamide]",< 100 nM
17,"O=C(Cn1c(-c2ccccc2)ncc(NC(=O)c2ccc(Oc3cccnc3)cc2)c1=O)NCc1cc2cnccc2[nH]1 [Compound 53, N-(1-(2-(((1H-pyrrolo[3,2-c]pyridin-2-yl)methyl)amino)-2-oxoethyl)-6-oxo-2-phenyl-1,6-dihydropyrimidin-5-yl)-4-(pyridin-3-yloxy)benzamide]",< 100 nM
18,"C[C@@H](Nc1cnc(N2CCC(O)CC2)n(CC(=O)NCc2cc3cnccc3[nH]2)c1=O)c1ccc2oc3ccccc3c2c1 [Compound 380, (R)-N-((1H-pyrrolo[3,2-c]pyridin-2-yl)methyl)-2-(5-((1-(dibenzo[b,d]furan-2-yl)ethyl)-amino)-2-(4-hydroxypiperidin-1-yl)-6-oxopyrimidin-1(6H)-yl)acetamide]",100 to 1000 nM
19,"COc1ccc(-c2ncc(NCc3ccc4oc5ccccc5c4c3)c(=O)n2CC(=O)NCc2cc3cnccc3[nH]2)cc1 [Compound 119, N-((1H-pyrrolo[3,2-c]pyridin-2-yl)methyl)-2-(5-((dibenzo [b,d]furan-2-ylmethyl)amino)-2-(4-methoxyphenyl)-6-oxo-pyrimidin-1(6H)-yl)acetamide]",< 100 nM
20,"C[C@H](Nc1cnc(-c2ccccn2)n(CC(=O)NCc2cc3cnccc3[nH]2)c1=O)c1ccc2oc3ccccc3c2c1 [Compound 285, (S)—N-((1H-pyrrolo[3,2-c]pyridine-2-yl)methyl)-2-(5-((1-(dibenzo[b,d]furan-2-yl)ethyl)amino)-6-oxo-2-(pyridine-2-yl)pyrimidin-1(6H)-yl)acetamide]",< 100 nM
21,"C[C@@H](Nc1cnc(-c2ccccc2F)n(CC(=O)NCc2cc3cnccc3[nH]2)c1=O)c1cc2c(cc1F)oc1ccccc12 [Compound 396, (R)-N-((1H-pyrrolo[3,2-c]pyridin-2-yl)methyl)-2-(5-((1-(3-fluorodibenzo[b,d]furan-2-yl)ethyl)amino)-2-(2-fluoro-phenyl)-6-oxopyrimidin-1(6H)-yl)acetamide]",< 100 nM
22,"C[C@@H](Nc1ncc(N2CCCC(O)C2)n(CC(=O)NCc2cc3cnccc3[nH]2)c1=O)c1ccc2oc3ccccc3c2c1 (stereo partly drawn) [Compound 424, N-((1H-pyrrolo[3,2-c]pyridin-2-yl)methyl)-2-(3-(((R)-1-(dibenzo[b,d]furan-2-yl)ethyl)-amino)-6-(3-hydroxypiperidin-1-yl)-2-oxopyrazin-1(2H)-yl)-acetamide]",< 100 nM
23,"C[C@@H](Nc1cnc(N2CCSCC2)n(CC(=O)NCc2cc3cnccc3[nH]2)c1=O)c1ccc2oc3ccccc3c2c1 [Compound 384, (R)-N-((1H-pyrrolo[3,2-c]pyridin-2-yl)methyl)-2-(5-((1-(dibenzo[b,d]furan-2-yl)ethyl)-amino)-6-oxo-2-thiomorpho-linopyrimidin-1(6H)-yl)acet-amide]",100 to 1000 nM
24,"O=C(Cn1c(-c2ccccc2)ncc(NC(=O)c2cnc(-c3ccccc3)[nH]2)c1=O)NCc1cc2cnccc2[nH]1 [Compound 168, N-(1-(2-(((1H-pyrrolo[3,2-c]pyridin-2-yl)methyl)amino)-2-oxoethyl)-6-oxo-2-phenyl-1,6-dihydropyrimidin-5-yl)-2-phenyl-1H-imidazole-5-carbox-amide]",< 100 nM
